Measurements from patent US8592469B2, “Diazonamide analogs” (Joyant Pharmaceuticals, Inc., priority 2012, dated 2013).

Tests used:
[1] = system: A2058 cells; experiment: Cell viability assay (Cell-Titer-Glo) in A2058 cells; type: cell-based; settings: Homo sapiens, 48 hour treatment, test compounds 1 nM to 1 μM
Method: (§1) Cell viability assays were run using standard protocols known to those of skill in art. Cells were plated in 96 well plates at the density of 3,000-10,000 cells per well. Twenty four hours later, cells were treated with increasing concentration of test compounds (1 nM to 1 μM). After another 48 hour, cell survival was measured using Cell-Titer-Glo® reagent (Promega) following the protocol provided by the manufacture. The IC50 value was determined as the concentration of test compound that kills 50% of the cell population.
(§2) Cell viability data generated according to the protocol described above was generated for representative compounds in A2058 and U937 cells. The compounds shown in Table 1 were prepared by the methods described herein for structurally similar compounds. The reference compound was a synthetic diazonamide analog having the structure: […]

[2] = system: U937 cells; experiment: Cell viability assay (Cell-Titer-Glo) in U937 cells; type: cell-based; settings: test compounds 1 nM to 1 μM
Method: as §1, §2

[3] = Homo sapiens, U-937, 48 hour treatment

Compound | IC50 [1] [nM] | IC50 [2, 3] [nM] | IC50 ([2]; 48 hour treatment) [nM]
CC(C)[C@H](O)C(=O)N[C@H]1Cc2ccc(O)c(c2)[C@]2(CNc3ccccc32)C2=C(c3nc(CO)co3)N=C(O2)[C@H](C(C)C)NC1=O (single isomer, unassigned) [Compound 102] | 492 | 225 | 
CC(C)[C@H](O)C(=O)NC1Cc2ccc3c(c2)C2(C4=C(c5nc(COC(=O)C(C)(C)C)co5)N=C(O4)[C@H](C(C)C)NC1=O)c1ccccc1N[C@H]2O3 (some centres unmarked) [Compound 21] | 40 | 20 | 
CC(=O)OCc1coc(-c2nc3oc2C24c5ccccc5N[C@H]2Oc2ccc(cc24)C[C@H](NC(=O)[C@@H](O)C(C)C)C(=O)N[C@H]3C(C)C)n1 (some centres unmarked) [Compound 22] | 52 | 19 | 
CC(C)[C@H](O)C(=O)NC1Cc2ccc3c(c2)C2(C4=C(c5nc(COC=O)co5)N=C(O4)[C@H](C(C)C)NC1=O)c1ccccc1N[C@H]2O3 (some centres unmarked) [Compound 23] | 57 | 21 | 
COC(=O)OCc1coc(-c2nc3oc2C24c5ccccc5N[C@H]2Oc2ccc(cc24)CC(NC(=O)[C@@H](O)C(C)C)C(=O)N[C@H]3C(C)C)n1 (some centres unmarked) [Compound 24] | 26 | 19.7 | 
CC(C)[C@H](O)C(=O)N[C@H]1Cc2ccc3c(c2)C2(C4=C(c5nc(COP(=O)(O)O)co5)N=C(O4)[C@H](C(C)C)NC1=O)c1ccccc1N[C@H]2O3 (some centres unmarked) [Compound 25] | 70.8 | 36.9 | 
COC(=O)OCc1coc(-c2nc3oc2C24c5ccccc5N[C@H]2Oc2ccc(cc24)CC(NC(=O)[C@@H](O)C(C)C)C(=O)N[C@H]3C(C)(C)C)n1 (some centres unmarked) [Compound 26] | 3.33 | 2.88 | 
CC(C)[C@@H]1NC(=O)C(NC(=O)[C@@H](O)C(C)(C)C)Cc2ccc3c(c2)C2(C4=C(c5nc(CO)co5)N=C1O4)c1ccccc1N[C@H]2O3 (some centres unmarked) [Compound 27] | 112 | 98 | 
CC(C)C[C@H](O)C(=O)N[C@H]1Cc2ccc3c(c2)C2(C4=C(c5nc(CO)co5)N=C(O4)[C@H](C(C)C)NC1=O)c1ccccc1N[C@H]2O3 (some centres unmarked) [Compound 28] | 143 | 112 | 
CC(O)c1coc(-c2nc3oc2C24c5ccccc5N[C@H]2Oc2ccc(cc24)C[C@H](NC(=O)[C@@H](O)C(C)C)C(=O)N[C@H]3C(C)C)n1 (some centres unmarked) [Compound 29] | 119 | 59 | 
CC(=O)c1coc(-c2nc3oc2C24c5ccccc5N[C@H]2Oc2ccc(cc24)C[C@H](NC(=O)[C@@H](O)C(C)C)C(=O)N[C@H]3C(C)C)n1 (some centres unmarked) [Compound 30] | 60 | 13 | 
CC(C)[C@H](O)C(=O)N[C@H]1Cc2ccc3c(c2)C2(C4=C(c5nc(C(C)(C)O)co5)N=C(O4)[C@H](C(C)C)NC1=O)c1ccccc1N[C@H]2O3 (some centres unmarked) [Compound 31] | 602 | 259 | 
CNCc1coc(-c2nc3oc2C24c5ccccc5N[C@H]2Oc2ccc(cc24)C[C@H](NC(=O)[C@@H](O)C(C)C)C(=O)N[C@H]3C(C)C)n1 (some centres unmarked) [Compound 32] | > 1000 | > 1000 | 
CC(C)[C@H](O)C(=O)N[C@H]1Cc2ccc3c(c2)C2(C4=C(c5nc(CN)co5)N=C(O4)[C@H](C(C)C)NC1=O)c1ccccc1N[C@H]2O3 (some centres unmarked) [Compound 33] | > 1000 | > 1000 | 
COC(=O)NCc1coc(-c2nc3oc2C24c5ccccc5N[C@H]2Oc2ccc(cc24)C[C@H](NC(=O)[C@@H](O)C(C)C)C(=O)N[C@H]3C(C)C)n1 (some centres unmarked) [Compound 34] | 149 | 134 | 
CC(C)[C@H](O)C(=O)NC1Cc2ccc3c(c2)C2(C4=C(c5nc(CNS(C)(=O)=O)co5)N=C(O4)[C@H](C(C)C)NC1=O)c1ccccc1N[C@H]2O3 (some centres unmarked) [Compound 35] | 151 | 198 | 
CC(C)[C@H](O)C(=O)N[C@H]1Cc2ccc3c(c2)C2(C4=C(c5nc(CNS(=O)(=O)c6ccccc6)co5)N=C(O4)[C@H](C(C)C)NC1=O)c1ccccc1N[C@H]2O3 (some centres unmarked) [Compound 36] | 194 | 209 | 

Compound | IC50 [1] [nM] | IC50 [2, 3] [nM] | IC50 ([2]; 48 hour treatment) [nM]
COC(=O)Nc1coc(-c2nc3oc2C24c5ccccc5N[C@H]2Oc2ccc(cc24)CC(NC(=O)[C@@H](O)C(C)C)C(=O)N[C@H]3C(C)C)n1 (some centres unmarked) [Compound 37] | 235 | 178 | 
CC(=O)Nc1oc(-c2nc3oc2C24c5ccccc5N[C@H]2Oc2ccc(cc24)CC(NC(=O)[C@@H](O)C(C)C)C(=O)N[C@H]3C(C)C)nc1C#N (some centres unmarked) [Compound 38] | > 1000 | > 1000 | 
CC(C)[C@H](O)C(=O)N[C@H]1Cc2ccc3c(c2)C2(C4=C(c5nc(C#N)co5)N=C(O4)[C@H](C(C)C)NC1=O)c1ccccc1N[C@H]2O3 (some centres unmarked) [Compound 39] | 23 | 71 | 
Cc1oc(-c2nc3oc2[C@@]24c5ccccc5NC2Oc2ccc(cc24)CC(NC(=O)[C@@H](O)C(C)C)C(=O)N[C@H]3C(C)C)nc1C#N (some centres unmarked) [Compound 40] | 182 | 210 | 
CC(C)[C@H](O)C(=O)NC1Cc2ccc3c(c2)C2(C4=C(c5nc(C6OCCCO6)co5)N=C(O4)[C@H](C(C)C)NC1=O)c1ccccc1N[C@H]2O3 (some centres unmarked) [Compound 41] | 65 | 65 | 
CC(C)[C@H](O)C(=O)NC1Cc2ccc3c(c2)C2(C4=C(c5nc(C6OCCO6)co5)N=C(O4)[C@H](C(C)C)NC1=O)c1ccccc1N[C@H]2O3 (some centres unmarked) [Compound 42] | 49 | 43 | 
CC(C)[C@H](O)C(=O)N[C@H]1Cc2ccc3c(c2)C2(C4=C(c5nc(C6=NCCO6)co5)N=C(O4)[C@H](C(C)C)NC1=O)c1ccccc1N[C@H]2O3 (some centres unmarked) [Compound 43] | 22 | 19 | 
CC(C)[C@H](O)C(=O)NC1Cc2ccc3c(c2)[C@]2(C4=C(c5nc(-c6nnn[nH]6)co5)N=C(O4)[C@H](C(C)C)NC1=O)c1ccccc1NC2O3 (some centres unmarked) [Compound 44] | > 1000 | > 1000 | 
CC(C)[C@H](O)C(=O)NC1Cc2ccc3c(c2)[C@]2(C4=C(c5nc(-c6ncc[nH]6)co5)N=C(O4)[C@H](C(C)C)NC1=O)c1ccccc1NC2O3 (some centres unmarked) [Compound 45] | 589 | 318 | 
Cc1nc(-c2coc(-c3nc4oc3[C@@]35c6ccccc6NC3Oc3ccc(cc35)C[C@H](NC(=O)[C@@H](O)C(C)C)C(=O)N[C@H]4C(C)C)n2)no1 (some centres unmarked) [Compound 46] | 49 | 76.9 | 
Cc1noc(-c2coc(-c3nc4oc3[C@@]35c6ccccc6NC3Oc3ccc(cc35)C[C@H](NC(=O)[C@@H](O)C(C)C)C(=O)N[C@H]4C(C)(C)C)n2)n1 (some centres unmarked) [Compound 47] | 7.06 | 14.2 | 
Cc1nnc(-c2coc(-c3nc4oc3[C@@]35c6ccccc6NC3Oc3ccc(cc35)C[C@H](NC(=O)[C@@H](O)C(C)C)C(=O)N[C@H]4C(C)(C)C)n2)o1 (some centres unmarked) [Compound 48] | 6.11 | 6.34 | 
COC(=O)c1coc(-c2nc3oc2C24c5ccccc5NC2Oc2ccc(cc24)C[C@H](NC(=O)[C@@H](O)C(C)C)C(=O)N[C@H]3CC(C)C)n1 (some centres unmarked) [Compound 49] | > 1000 | 223 | 
COC(=O)c1coc(-c2nc3oc2C24c5ccccc5NC2Oc2ccc(cc24)C[C@H](NC(=O)[C@@H](O)C(C)C)C(=O)N[C@H]3C(C)(C)C)n1 (some centres unmarked) [Compound 50] | 53 | 12 | 
COC(=O)c1coc(-c2nc3oc2C24c5ccccc5NC2Oc2ccc(cc24)C[C@H](NC(=O)[C@@H](O)C(C)C)C(=O)N[C@H]3Cc2ccccc2)n1 (some centres unmarked) [Compound 51] | > 1000 | > 1000 | 
COC(=O)c1coc(-c2nc3oc2[C@]24c5ccccc5NC2Oc2ccc(cc24)C[C@H](NC(=O)[C@@H](O)C(C)C)C(=O)N[C@H]3C(C)(C)C)n1 (some centres unmarked) [Compound 59] |  |  | 69
